Assay results from patent publication US4128639A, “Nitrosourea analogs of thymidine” (Research Corporation, priority 1977, dated 1978).
Like-named read-outs stand apart in the source and are kept apart here.

Tests used:
L1210 leukemia cells = test: Culture study with L1210: inhibition of replication/growth of L1210 cells in vitro; format: cell-based; details: Mus musculus, read-out: ED50 (drug concentration needed to inhibit cell growth by 50%)
Procedure: The effect of the compounds on the growth of L1210 cells in vitro was used as a measure of cytotoxicity. Suspension cultures were grown in Fischer's media supplemented with 10% horse serum at 37°. 72 Hours after addition of the nitrosoureas, cell numbers were determined in two independent samples, in duplicate, using a Coulter counter, for each concentration tested. ED50 values were estimated from dose-response curves compiled from at least three separate experiments and represent the drug concentration needed to inhibit cell growth by 50%.

L1210 cells [1] = test: In vivo study with CDF1 mice inoculated with L1210 cells
Procedure: Two groups of CDF1 mice were inoculated with 1 × 10^5 L1210 cells/animal intraperitoneally. Two days later, one group of six mice received a single intraperitoneal injection (150 mg/Kg) of compound 5 (5'-[3-(2-chloroethyl)-3-nitrosoureido]-5'-deoxythymidine) and the control group was administered an equal volume of vehicle.

L1210 cells [2] = test: Reversal of cytotoxicity of nitrosourea analogs of thymidine by pyrimidine deoxyribonucleosides (inhibition study in L1210 cultures); format: cell-based; details: for Percent Reversal: nitrosourea analog 5 μM
[3] = single intraperitoneal injection 150 mg/kg, 2 days after 1 × 10^5 L1210 cells, CDF1 mice
[4] = reversing agent deoxycytidine 0 μM
[5] = reversing agent deoxycytidine 5 μM
[6] = reversing agent deoxycytidine 25 μM
[7] = reversing agent deoxyuridine 0 μM
[8] = reversing agent deoxyuridine 5 μM
[9] = reversing agent deoxyuridine 25 μM
[10] = reversing agent thymidine 25 μM

Compound	IC50 (L1210 leukemia cells; L1210, 72 h)	Percent Reversal (L1210 cells [2]; [4])	Percent Reversal (L1210 cells [2]; [5])	Percent Reversal (L1210 cells [2]; [6])	Percent Reversal (L1210 cells [2]; [7])	Percent Reversal (L1210 cells [2]; [8])	Percent Reversal (L1210 cells [2]; [9])	Percent Reversal (L1210 cells [2]; reversing agent thymidine 0 μM)	Percent Reversal (L1210 cells [2]; reversing agent thymidine 1 μM)	Percent Reversal (L1210 cells [2]; reversing agent thymidine 5 μM)	Percent Reversal (L1210 cells [2]; [10])	other results
O=NN(CCCl)C(=O)NCCCl [BCNU, 1,3-bis(2-Chloroethyl)-1-nitrosourea, reference compound]	4000 nM											
Cc1cn([C@H]2C[C@H](O)[C@@H](CNC(=O)N(CCCl)N=O)O2)c(=O)[nH]c1=O [Compound 5, 5'-[3-(2-chloroethyl)-3-nitrosoureido]-5'-deoxythymidine]												animals survived more than 60 days (L1210 cells [1]; single intraperitoneal injection 150 mg/Kg, 2 days after 1 × 10^5 L1210 cells, CDF1 mice): 2/6; tumor cell kill (L1210 cells [1]; single intraperitoneal injection 150 mg/Kg, L1210, CDF1 mice): ~5 log; increase in life span of the dying animals over the controls (L1210 cells [1]; [3]): 211%; long term survivors (>60 days) (L1210 cells [1]; [3]): 33%
Cc1cn([C@H]2C[C@H](NC(=O)N(CCCl)N=O)[C@@H](CO)O2)c(=O)[nH]c1=O [Compound 10, 3'-[3-(2-chloroethyl)-3-nitrosoureido]-3'-deoxythymidine]	1500 nM	0%	28%	40%	0%	32%	51%	0%	22%	45%	54%	Percent Reversal (L1210 cells [2]; reversing agent deoxycytidine 1 μM): 5%; Percent Reversal (L1210 cells [2]; reversing agent deoxyuridine 1 μM): 4%
Cc1cn([C@H]2C[C@H](NC(=O)N(C)N=O)[C@@H](CO)O2)c(=O)[nH]c1=O [Compound 11, 3'-(3-methyl-3-nitrosoureido)-3'-deoxythymidine]		0%	42%	74%	0%	49%	81%	0%	21%	54%	62%	IC50 (L1210 leukemia cells; L1210 cells in culture, 72 hours, Coulter counter, Fischer's media with 10% horse serum, 37°): 1000 nM; inhibition at 5 µM (L1210 cells [2]; Mus musculus, compound 11 5 μM, no deoxycytidine, L1210, 72 hours, read-out: Percent Inhibition): 100%; Percent Inhibition (L1210 cells [2]; compound 11 5 μM + deoxycytidine 5 μM, L1210, 72 hours): 58%; Percent Inhibition (L1210 cells [2]; compound 11 5 μM + deoxycytidine 25 μM, L1210, 72 hours): 26%; Percent Inhibition (L1210 cells [2]; compound 11 5 μM + deoxycytidine 125 μM, L1210, 72 hours): 0%; Percent Reversal (L1210 cells [2]; reversing agent deoxycytidine 125 μM): 100%
